Results as given in US20230416237A1, “AMIDE COMPOUND, PHARMACEUTICAL COMPOSITION AND USE THEREOF” (SHENZHEN BO LI JIAN MEDICINE CO., LTD., priority 2020, published 2023).

Experiments:
[1] = target: JAK2 (Homo sapiens (Human), UniProt O60674); assay: JAK2 inhibitory activity, mobility shift assay, 1 mM ATP; type: biochemical; conditions: Table 7
Protocol: (§1) The JAK1 inhibitory activity and the JAK2 inhibitory activity of the amide compounds provided in the above examples were tested by the method below.
(§2) Specific steps are described below. • 1. A 1× Kinase buffer was formulated. • 2. Concentration gradients of the compound were formulated: a test compound with an initial concentration of 10000 nM (JAK1) or 30000 nM (JAK2) was diluted in a 384-well plate to a 100% DMSO solution with a 100-fold final concentration, wherein the compound was diluted by a fold of 3 to 10 concentrations. 250 nL of the compound with the 100-fold final concentration was transferred with a dispenser Echo 550 to the target plate. • 3. A kinase solution with a 2.5-fold final concentration was prepared with the 1× Kinase buffer. • 4. […] The plate was centrifuged at 1000 rpm for 30 s, shaken and uniformly mixed, and incubated for 10 min at room temperature. • 6. A mixed solution of ATP (the final concentration of ATP=1 mM) and Kinase substrate with a 5/3-fold final concentration was formulated with the 1× Kinase buffer. • 7. 15 μL of the mixed solution of ATP and the substrate with the 5/3-fold final concentration was added to initiate the reaction. • 8. The 384-well plate was centrifuged at 1000 rpm for 30 s, shaken and uniformly mixed, and incubated for respective times at room temperature. • 9. The kinase reaction was stopped by adding 30 μL of a detection termination solution, and the plate was centrifuged at 1000 rpm for 30 s and shaken and uniformly mixed. • 10. The conversion rate was read with Caliper EZ Reader and the half maximal inhibitory concentration (IC50) was calculated.

[2] = target: JAK1 (Homo sapiens (Human), UniProt P23458); assay: JAK1 inhibitory activity, mobility shift assay, 1 mM ATP; type: biochemical; conditions: 1 mM ATP; Table 7
Protocol: as §1, §2

JAK1, sequence (P23458 850-1154): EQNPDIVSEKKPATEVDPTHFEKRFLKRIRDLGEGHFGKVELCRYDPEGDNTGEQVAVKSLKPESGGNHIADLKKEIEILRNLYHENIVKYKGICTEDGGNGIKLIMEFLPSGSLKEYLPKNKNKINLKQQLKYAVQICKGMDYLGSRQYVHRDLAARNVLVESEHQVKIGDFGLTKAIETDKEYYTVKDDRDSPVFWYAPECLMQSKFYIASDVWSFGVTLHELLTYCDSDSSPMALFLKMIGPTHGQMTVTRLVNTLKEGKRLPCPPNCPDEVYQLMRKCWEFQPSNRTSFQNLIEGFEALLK
JAK2, sequence (O60674 826-1132): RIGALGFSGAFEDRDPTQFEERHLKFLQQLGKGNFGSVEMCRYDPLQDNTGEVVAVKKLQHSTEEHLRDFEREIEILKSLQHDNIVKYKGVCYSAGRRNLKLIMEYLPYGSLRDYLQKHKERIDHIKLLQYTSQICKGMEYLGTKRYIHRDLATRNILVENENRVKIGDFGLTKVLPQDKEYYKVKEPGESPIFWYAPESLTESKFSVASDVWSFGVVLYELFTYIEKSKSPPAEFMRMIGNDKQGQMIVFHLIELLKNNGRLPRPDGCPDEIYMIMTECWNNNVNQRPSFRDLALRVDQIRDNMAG

| SMILES | IC50 [1] | IC50 [2] |
| --- | --- | --- |
| COc1nn(C)cc1Nc1nccc(-c2c[nH]c3c(NC(=O)[C@H]4C[C@H](F)CN4[C@@H]4CCNC4)cccc23)n1 (single isomer, unassigned) [Example 18] | 10200 nM | 108 nM |
| COc1nn(C)cc1Nc1nccc(-c2c[nH]c3c(NC(=O)[C@H]4C[C@H](F)CN4[C@H]4CCNC4)cccc23)n1 (single isomer, unassigned) [Example 19] | 15500 nM | 368 nM |
| COc1nn(C)cc1Nc1nccc(-c2c[nH]c3c(NC(=O)[C@H]4C[C@H](F)CN4[C@@H]4CCN(C)C4)cccc23)n1 (single isomer, unassigned) [Example 20] | 21500 nM | 120 nM |
| COc1nn(C)cc1Nc1nccc(-c2c[nH]c3c(NC(=O)[C@H]4C[C@H](F)CN4[C@H]4CCN(C)C4)cccc23)n1 (single isomer, unassigned) [Example 21] | > 30000 nM | 262 nM |
| COc1nn(C)cc1Nc1ncc(F)c(-c2c[nH]c3c(NC(=O)[C@@H]4CCCN4S(C)(=O)=O)cccc23)n1 [Example 1, (S)—N-(3-(5-fluoro-2-((3-methoxy-1-methyl-1H-pyrazol-4-yl)amino)pyrimidin-4-yl)-1H-indol-7-yl)-1-(methanesulfonyl)pyrrolidine-2-carboxamide] | 2820 nM | 73 nM |
| CCS(=O)(=O)N1CCC[C@H]1C(=O)Nc1cccc2c(-c3nc(Nc4cn(C)nc4OC)ncc3F)c[nH]c12 [Example 2, (S)-N-(3-(5-fluoro-2-((3-methoxy-1-methyl-1H-pyrazol-4-yl)amino)pyrimidin-4-yl)-1H-indol-7-yl)-1-(ethanesulfonyl)pyrrolidine-2-carboxamide] | 1850 nM | 137 nM |
| COc1nn(C)cc1Nc1ncc(C)c(-c2c[nH]c3c(NC(=O)[C@@H]4CCCN4S(C)(=O)=O)cccc23)n1 [Example 3, (S)-N-(3-(2-((3-methoxy-1-methyl-1H-pyrazol-4-yl)amino)-5-methylpyrimidin-4-yl)-1H-indol-7-yl)-1-(methanesulfonyl)pyrrolidine-2-carboxamide] | 2210 nM | 70 nM |
| COc1nn(C)cc1Nc1ncc(Cl)c(-c2c[nH]c3c(NC(=O)[C@@H]4CCCN4S(C)(=O)=O)cccc23)n1 [Example 4, (S)-N-(3-(5-chloro-2-((3-methoxy-1-methyl-1H-pyrazol-4-yl)amino)pyrimidin-4-yl)-1H-indol-7-yl)-1-(methanesulfonyl)pyrrolidine-2-carboxamide] | 652 nM | 53 nM |
| COc1nn(C)cc1Nc1ncc(F)c(-c2c[nH]c3c(NC(=O)[C@H]4CCCN4C4CCNCC4)cccc23)n1 [Example 5, (R)—N-(3-(5-fluoro-2-((3-methoxy-1-methyl-1H-pyrazol-4-yl)amino)pyrimidin-4-yl)-1H-indol-7-yl)-1-(piperidin-4-yl)pyrrolidine-2-carboxamide] | 4300 nM | 55 nM |
| COc1nn(C)cc1Nc1ncc(F)c(-c2c[nH]c3c(NC(=O)[C@H]4C[C@H](F)CN4C4CCNCC4)cccc23)n1 [Example 6, (2R,4S)-4-fluoro-N-(3-(5-fluoro-2-((3-methoxy-1-methyl-1H-pyrazol-4-yl)amino)pyrimidin-4-yl)-1H-indol-7-yl)-1-(piperidin-4-yl)pyrrolidine-2-carboxamide] | 4000 nM | 68 nM |
| COc1nn(C)cc1Nc1ncc(F)c(-c2c[nH]c3c(NC(=O)[C@H]4C[C@@H](F)CN4C4CCNCC4)cccc23)n1 [Example 7, (2R,4R)-4-fluoro-N-(3-(5-fluoro-2-((3-methoxy-1-methyl-1H-pyrazol-4-yl)amino)pyrimidin-4-yl)-1H-indol-7-yl)-1-(piperidin-4-yl)pyrrolidine-2-carboxamide] | 4410 nM | 152 nM |
| COc1nn(C)cc1Nc1ncc(F)c(-c2c[nH]c3c(NC(=O)[C@H]4C[C@@H](OC)CN4C4CCNCC4)cccc23)n1 [Example 8, (2R,4R)-N-(3-(5-fluoro-2-((3-methoxy-1-methyl-1H-pyrazol-4-yl)amino)pyrimidin-4-yl)-1H-indol-7-yl)-4-methoxy-1-(piperidin-4-yl)pyrrolidine-2-carboxamide] | 10500 nM | 1170 nM |
| COc1nn(C)cc1Nc1ncc(F)c(-c2c[nH]c3c(NC(=O)[C@H]4C[C@H](OC)CN4C4CCNCC4)cccc23)n1 [Example 9, (2R,4S)-N-(3-(5-fluoro-2-((3-methoxy-1-methyl-1H-pyrazol-4-yl)amino)pyrimidin-4-yl)-1H-indol-7-yl)-4-methoxy-1-(piperidin-4-yl)pyrrolidine-2-carboxamide] | 5000 nM | 51 nM |
| COc1nn(C)cc1Nc1ncc(F)c(-c2c[nH]c3c(NC(=O)[C@H]4CCCN4C4CCN(C)CC4)cccc23)n1 [Example 10, (R)-N-(3-(5-fluoro-2-((3-methoxy-1-methyl-1H-pyrazol-4-yl)amino)pyrimidin-4-yl)-1H-indol-7-yl)-1-(1-methylpiperidin-4-yl)pyrrolidine-2-carboxamide] | 14600 nM | 104 nM |
| COc1nn(C)cc1Nc1ncc(C)c(-c2c[nH]c3c(NC(=O)[C@H]4CCCN4C4CCN(C)CC4)cccc23)n1 [Example 11, (R)-N-(3-(2-((3-methoxy-1-methyl-1H-pyrazol-4-yl)amino)-5-methylpyrimidin-4-yl)-1H-indol-7-yl)-1-(1-methylpiperidin-4-yl)pyrrolidine-2-carboxamide] | 12100 nM | 69 nM |
| CCO[C@H]1C[C@H](C(=O)Nc2cccc3c(-c4nc(Nc5cn(C)nc5OC)ncc4C)c[nH]c23)N(C2CCN(C)CC2)C1 [Example 12, (2R,4S)-4-ethoxy-N-(3-(2-((3-methoxy-1-methyl-1H-pyrazol-4-yl)amino)-5-methylpyrimidin-4-yl)-1H-indol-7-yl)-1-(1-methylpiperidin-4-yl)pyrrolidine-2-carboxamide] | 12000 nM | 103 nM |
| COc1nn(C)cc1Nc1ncc(C)c(-c2c[nH]c3c(NC(=O)[C@H]4C[C@H](OC)CN4C4CCN(C)CC4)cccc23)n1 [Example 13, (2R,4S)-4-methoxy-N-(3-(2-((3-methoxy-1-methyl-1H-pyrazol-4-yl)amino)-5-methylpyrimidin-4-yl)-1H-indol-7-yl)-1-(1-methylpiperidin-4-yl)pyrrolidine-2-carboxamide] | 14500 nM | 101 nM |
| COc1nn(C)cc1Nc1ncc(C)c(-c2c[nH]c3c(NC(=O)[C@H]4C[C@H](F)CN4C4CCN(C)CC4)cccc23)n1 [Example 14, (2R,4S)-4-fluoro-N-(3-(2-((3-methoxy-1-methyl-1H-pyrazol-4-yl)amino)-5-methylpyrimidin-4-yl)-1H-indol-7-yl)-1-(1-methylpiperidin-4-yl)pyrrolidine-2-carboxamide] | 6620 nM | 41 nM |
| COc1nn(C)cc1Nc1ncc(Cl)c(-c2c[nH]c3c(NC(=O)[C@H]4CCCN4C4CCN(C)CC4)cccc23)n1 [Example 15, (R)-N-(3-(5-chloro-2-((3-methoxy-1-methyl-1H-pyrazol-4-yl)amino)pyrimidin-4-yl)-1H-indol-7-yl)-1-(1-methylpiperidin-4-yl)pyrrolidine-2-carboxamide] | 3640 nM | 27 nM |
| COc1nn(C)cc1Nc1ncc(C)c(-c2c[nH]c3c(NC(=O)[C@H]4CC(F)(F)CN4C4CCN(C)CC4)cccc23)n1 [Example 16, (R)-4,4-difluoro-N-(3-(2-((3-methoxy-1-methyl-1H-pyrazol-4-yl)amino)-5-methylpyrimidin-4-yl)-1H-indol-7-yl)-1-(1-methylpiperidin-4-yl)pyrrolidine-2-carboxamide] | 3340 nM | 40 nM |
| COc1nn(C)cc1Nc1nccc(-c2c[nH]c3c(NC(=O)[C@H]4CC(F)(F)CN4C4CCN(C)CC4)cccc23)n1 [Example 17, (R)-4,4-difluoro-N-(3-(2-((3-methoxy-1-methyl-1H-pyrazol-4-yl)amino)pyrimidin-4-yl)-1H-indol-7-yl)-1-(1-methylpiperidin-4-yl)pyrrolidine-2-carboxamide] | 10500 nM | 216 nM |
| COc1nn(C)cc1Nc1ncc(F)c(-c2c[nH]c3c(NC(=O)[C@H]4CCCN4[C@@H]4CCNC4)cccc23)n1 [Example 22, (2R,3′R)-N-(3-(5-fluoro-2-((3-methoxy-1-methyl-1H-pyrazol-4-yl)amino)pyrimidin-4-yl)-1H-indol-7-yl)-[1,3′-bipyrrolidine]-2-carboxamide] | 7280 nM | 46 nM |
| COc1nn(C)cc1Nc1ncc(F)c(-c2c[nH]c3c(NC(=O)[C@H]4CCCN4[C@H]4CCNC4)cccc23)n1 [Example 23, (2R,3′S)-N-(3-(5-fluoro-2-((3-methoxy-1-methyl-1H-pyrazol-4-yl)amino)pyrimidin-4-yl)-1H-indol-7-yl)-[1,3′-bipyrrolidine]-2-carboxamide] | 5370 nM | 59 nM |
| COc1nn(C)cc1Nc1ncc(F)c(-c2c[nH]c3c(NC(=O)[C@H]4CCCN4[C@@H]4CCN(C)C4)cccc23)n1 [Example 24, (2R,3′R)-N-(3-(5-fluoro-2-((3-methoxy-1-methyl-1H-pyrazol-4-yl)amino)pyrimidin-4-yl)-1H-indol-7-yl)-1′-methyl-[1,3′-bipyrrolidine]-2-carboxamide] | 14600 nM | 40 nM |
